± gives the uncertainty stated by the source.
Test: xn = mol fraction of the nth substance listed

CCC(CC)CO + CCO
298.15 K, 101.33 kPa
Conditions | viscosity [mPa·s]
x2 = 0.1055 | 5.144 ± 0.045
x2 = 0.2003 | 4.502 ± 0.041
x2 = 0.3067 | 3.844 ± 0.036
x2 = 0.4044 | 3.291 ± 0.032
x2 = 0.503 | 2.777 ± 0.029
x2 = 0.6076 | 2.35 ± 0.026
x2 = 0.6966 | 1.972 ± 0.023
x2 = 0.8051 | 1.617 ± 0.021
x2 = 0.9036 | 1.345 ± 0.019

CCCCOC(C)=O + CCCCCC
viscosity [mPa·s]
Conditions | 298.15 K | 308.15 K
101 kPa, x1 = 0.0521 | 0.3 ± 0.004 | 0.282 ± 0.004
101 kPa, x1 = 0.1491 | 0.319 ± 0.004 | 0.3 ± 0.004
101 kPa, x1 = 0.2486 | 0.341 ± 0.004 | 0.321 ± 0.004
101 kPa, x1 = 0.3517 | 0.368 ± 0.004 | 0.346 ± 0.004
101 kPa, x1 = 0.4482 | 0.397 ± 0.004 | 0.372 ± 0.004
101 kPa, x1 = 0.4932 | 0.412 ± 0.004 | 0.385 ± 0.004
101 kPa, x1 = 0.5515 | 0.433 ± 0.004 | 0.403 ± 0.004
101 kPa, x1 = 0.6483 | 0.472 ± 0.004 | 0.436 ± 0.004
101 kPa, x1 = 0.7486 | 0.519 ± 0.005 | 0.474 ± 0.004
101 kPa, x1 = 0.8491 | 0.574 ± 0.005 | 0.517 ± 0.004
101 kPa, x1 = 0.9461 | 0.635 ± 0.005 | 0.565 ± 0.005
101.3 kPa, x1 = 0.1335 | 0.3275 ± 0.0034 | –
101.3 kPa, x1 = 0.2322 | 0.3509 ± 0.0036 | –
101.3 kPa, x1 = 0.3294 | 0.3762 ± 0.0038 | –
101.3 kPa, x1 = 0.4644 | 0.4191 ± 0.0041 | –
101.3 kPa, x1 = 0.5644 | 0.4558 ± 0.0044 | –
101.3 kPa, x1 = 0.6697 | 0.4996 ± 0.0048 | –
101.3 kPa, x1 = 0.8002 | 0.5626 ± 0.0053 | –
101.3 kPa, x1 = 0.8967 | 0.6164 ± 0.0057 | –
101.3 kPa, x1 = 0.9324 | 0.6456 ± 0.0059 | –

C=COC(C)=O + CCc1ccccc1
viscosity [mPa·s], 101 kPa
Conditions | x1 = 0.1246 | x1 = 0.2478 | x1 = 0.3516 | x1 = 0.4658 | x1 = 0.576 | x1 = 0.6587 | x1 = 0.7601 | x1 = 0.8593 | x1 = 0.9467
303.15 K | 0.556 ± 0.007 | 0.523 ± 0.007 | 0.499 ± 0.006 | 0.475 ± 0.006 | 0.453 ± 0.006 | 0.439 ± 0.006 | 0.422 ± 0.006 | 0.408 ± 0.005 | 0.397 ± 0.005
313.15 K | 0.506 ± 0.007 | 0.473 ± 0.006 | 0.45 ± 0.006 | 0.426 ± 0.006 | 0.407 ± 0.005 | 0.394 ± 0.005 | 0.379 ± 0.005 | 0.364 ± 0.005 | 0.352 ± 0.005

CCCN + COCCOC
298.15 K, 101 kPa
Conditions | viscosity [mPa·s]
x1 = 0.0189 | 0.415 ± 0.007
x2 = 0.0057 | 0.356 ± 0.007
x2 = 0.0115 | 0.357 ± 0.007
x2 = 0.032 | 0.358 ± 0.007
x2 = 0.0568 | 0.36 ± 0.007
x2 = 0.0815 | 0.362 ± 0.007
x2 = 0.1075 | 0.364 ± 0.007
x2 = 0.1552 | 0.368 ± 0.007
x2 = 0.1871 | 0.369 ± 0.007
x2 = 0.2467 | 0.372 ± 0.007
x2 = 0.2882 | 0.373 ± 0.007
x2 = 0.3386 | 0.374 ± 0.007
x2 = 0.3526 | 0.374 ± 0.007
x2 = 0.3761 | 0.374 ± 0.007
x2 = 0.4134 | 0.375 ± 0.007
x2 = 0.4707 | 0.378 ± 0.007
x2 = 0.5131 | 0.38 ± 0.007
x2 = 0.5662 | 0.381 ± 0.007
x2 = 0.6099 | 0.383 ± 0.007
x2 = 0.6466 | 0.386 ± 0.007
x2 = 0.7017 | 0.39 ± 0.007
x2 = 0.74 | 0.392 ± 0.007
x2 = 0.8022 | 0.397 ± 0.007
x2 = 0.833 | 0.399 ± 0.007
x2 = 0.8785 | 0.403 ± 0.007
x2 = 0.9167 | 0.408 ± 0.007
x2 = 0.9436 | 0.411 ± 0.007

CCCCOC(C)=O + CO
303.15 K, 101.33 kPa
Conditions | viscosity [mPa·s]
x1 = 0.0963 | 0.528 ± 0.005
x1 = 0.1331 | 0.533 ± 0.005
x1 = 0.1759 | 0.539 ± 0.005
x1 = 0.2825 | 0.552 ± 0.005
x1 = 0.3931 | 0.566 ± 0.005
x1 = 0.4804 | 0.577 ± 0.005
x1 = 0.5458 | 0.585 ± 0.006
x1 = 0.6116 | 0.592 ± 0.006
x1 = 0.6478 | 0.596 ± 0.006
x1 = 0.7391 | 0.606 ± 0.006
x1 = 0.8007 | 0.612 ± 0.006
x1 = 0.8409 | 0.616 ± 0.006
x1 = 0.8858 | 0.621 ± 0.006
x1 = 0.924 | 0.624 ± 0.006

Oc1ccccc1Cl + CCCCCOC(C)=O
Conditions | viscosity [mPa·s]
298.15 K, 101 kPa, x1 = 0.5 | 1.202 ± 0.012

C=COC(C)=O + CCO
303.15 K, 101.33 kPa
Conditions | viscosity [mPa·s]
x1 = 0.0998 | 0.787 ± 0.005
x1 = 0.2001 | 0.651 ± 0.005
x1 = 0.2995 | 0.564 ± 0.004
x1 = 0.4007 | 0.501 ± 0.004
x1 = 0.5002 | 0.457 ± 0.003
x1 = 0.599 | 0.425 ± 0.003
x1 = 0.7013 | 0.402 ± 0.003
x1 = 0.8005 | 0.386 ± 0.003
x1 = 0.9002 | 0.378 ± 0.003

Oc1ccccc1Cl + C1CCCCC1
viscosity [mPa·s], 303.15 K
Conditions | x2 = 0.1078 | x2 = 0.2025 | x2 = 0.3072 | x2 = 0.4048 | x2 = 0.6046 | x2 = 0.6564 | x2 = 0.7542 | x2 = 0.8969
101 kPa | 2.275 ± 0.034 | 1.996 ± 0.03 | 1.622 ± 0.025 | 1.331 ± 0.02 | 1.032 ± 0.016 | 0.981 ± 0.015 | 0.881 ± 0.013 | 0.795 ± 0.012
101.33 kPa | 2.275 ± 0.059 | 1.996 ± 0.052 | 1.622 ± 0.042 | 1.331 ± 0.034 | 1.032 ± 0.027 | 0.981 ± 0.025 | 0.881 ± 0.023 | 0.794 ± 0.021

CCCCC[NH3+].O=[N+]([O-])[O-] + O
298 K, 101 kPa
Conditions | viscosity [mPa·s]
x2 = 0.2 | 69.13 ± 2.4
x2 = 0.299 | 47.41 ± 1.4
x2 = 0.399 | 30.46 ± 0.85
x2 = 0.499 | 20.51 ± 0.53
x2 = 0.6 | 14.23 ± 0.35
x2 = 0.702 | 9.1 ± 0.21
x2 = 0.799 | 5.47 ± 0.12
x2 = 0.9 | 2.71 ± 0.06
x2 = 0.95 | 1.67 ± 0.04

CCCCCCCC(=O)O + CCCCCCCCCCCC(=O)O
100 kPa, x2 = 0.25
Conditions | viscosity [mPa·s]
293.15 K | 8.223 ± 0.19
298.15 K | 7.085 ± 0.16
303.15 K | 6.158 ± 0.14
308.15 K | 5.394 ± 0.12
313.15 K | 4.759 ± 0.11
318.15 K | 4.227 ± 0.096
323.15 K | 3.777 ± 0.086

C[NH2+]C(C)Cc1ccc2c(c1)OCO2.[Cl-] (stereo unspecified) + O
viscosity [mPa·s], 100 kPa
Conditions | 293.15 K | 298.15 K | 303.15 K | 308.15 K | 313.15 K
x1 = 0.001729 | 1.063 ± 0.022 | 0.942 ± 0.02 | 0.842 ± 0.018 | 0.758 ± 0.016 | 0.686 ± 0.014
x1 = 0.003622 | 1.125 ± 0.023 | 0.995 ± 0.021 | 0.888 ± 0.019 | 0.798 ± 0.017 | 0.721 ± 0.015
x1 = 0.00541 | 1.18 ± 0.025 | 1.042 ± 0.022 | 0.929 ± 0.019 | 0.834 ± 0.017 | 0.752 ± 0.016
x1 = 0.006269 | 1.206 ± 0.025 | 1.065 ± 0.022 | 0.949 ± 0.02 | 0.851 ± 0.018 | 0.767 ± 0.016
x1 = 0.0072 | 1.233 ± 0.026 | 1.088 ± 0.023 | 0.969 ± 0.02 | 0.869 ± 0.018 | 0.783 ± 0.016

— the CheMixHub viscosity set
